B1: DLL: DLL1 ligand, surface-coated onto tissue culture plastic (protein, UniProt O00548 18-723, looked up)
Delta-like protein 1: QVWSSGVFELKLQEFVNKKGLLGNRNCCRGGAGPPPCACRTFFRVCLKHYQASVSPEPPCTYGSAVTPVLGVDSFSLPDGGGADSAFSNPIRFPFGFTWPGTFSLIIEALHTDSPDDLATENPERLISRLATQRHLTVGEEWSQDLHSSGRTDLKYSYRFVCDEHYYGEGCSVFCRPRDDAFGHFTCGERGEKVCNPGWKGPYCTEPICLPGCDEQHGFCDKPGECKCRVGWQGRYCDECIRYPGCLHGTCQQPWQCNCQEGWGGLFCNQDLNYCTHHKPCKNGATCTNTGQGSYTCSCRPGYTGATCELGIDECDPSPCKNGGSCTDLENSYSCTCPPGFYGKICELSAMTCADGPCFNGGRCSDSPDGGYSCRCPVGYSGFNCEKKIDYCSSSPCSNGAKCVDLGDAYLCRCQAGFSGRHCDDNVDDCASSPCANGGTCRDGVNDFSCTCPPGYTGRNCSAPVSRCEHAPCHNGATCHERGHRYVCECARGYGGPNCQFLLPELPPGPAVVDLTEKLEGQGGPFPWVAVCAGVILVLMLLLGCAAVVVCVRLRLQKHRPPADPCRGETETMNNLANCQREKDISVSIIGATQIKNTNKKADFHGDHSADKNGFKARYPAVDYNLVQDLKGDDTAVRDAHSKRDTKCQPQGSSGEEKGTPTTLRGGEASERKRPDSGCSTSKDTKYQSVYVISEEKDECVIATEV
modifications: surface-coated
notes: DLL1 ligand, surface-coated onto tissue culture plastic
B2: BMP4: signaling factor (Peprotech) important in neural stem cell differentiation into astrocytes (protein, UniProt P12644 293-408, looked up)
Bone morphogenetic protein 4: SPKHHSQRARKKNKNCRRHSLYVDFSDVGWNDWIVAPPGYQAFYCHGDCPFPLADHLNSTNHAIVQTLVNSVNSSIPKACCVPTELSAISMLYLDEYDKVVLKNYQEMVVEGCGCR

How the values were obtained:
[1] = test system: neural stem cells / progenitor subpopulations from E18 mouse brain; assay: Combinatorial signal screen on cells dissociated from the brain: LLR ranking, query, multinomial logistic regression of subpopulation abundances; type: cell-based; details: for log-likelihood ratio (LLR) score against control population: control 20 ng/mL EGF/FGF
Protocol: Next, whether and how signaling interventions can pre-emptively bias the transcriptional state of neural stem cells, potentially restoring lost functionality, were determined. Given the finding that transcriptional changes happened in less than three days after in vitro culture, signals were added immediately after dissociation from the brain. Signals known to be important in neural stem cell differentiation into astrocytes (BMP4), neurons (Wnt pathway through CHIR activation), or oligodendrocytes (PDGF-AA), were chosen. A combinatorial screen, in which these signals were added together with EGF/FGF at varying concentrations to dissociated cells from the brain, were performed. The cells were grown for 5 days before profiling. To profile all of these samples, a multiplexing approach, in which cells were methanol fixed and then covalently labeled with a separate exogenous DNA barcode for each experimental condition, was used. A total of 8691 cells were profiled across 19 conditions [See Methods—Experimental multiplexing using Clicktags in this example].
First, how the populations responded at a high-level were examined by using the PopAlign framework to build new models of populations, and the populations were ranked against a control population using a Log-likelihood ratio score (FIG. 38A). In this case, the control population was defined as the 20 ng/mL EGF/FGF condition, which is the concentration of growth factors normally used to propagate neural stem cells in culture. The log-likelihood ratio score is a single metric that measures the extent to which an entire population model diverges from a control population.
To investigate this more deeply, how the population structure of these progenitor cells responded to the signaling cues was determined. For this analysis the query function [See Methods—Query in this example] of the modeling framework was used to score all cells in each sample using a standard model built from the control population. For this combinatorial screen, some conditions suffered from poor sampling (roughly 100 cells vs. 1000 cells for most samples) due to variation in proliferation rates. Thus, querying all samples using the same model was more robust than building separate models (which can be of poor quality with severe undersampling). The first 3 principal components (PCs) were used as the feature vectors in order to improve the sampling within the gene expression space.
In this new analysis, the population were segmented into more fine-grained subpopulations (FIG. 38B). While there was a committed neuroblast population, the neural progenitor population now split into three subpopulations: (1) a proliferating progenitor (PP) population that actively expressed mitotic genes, (2) a non-proliferating progenitor population (NPP), as well as (3) a basal progenitor (BP) that only expressed the progenitor program (Prog), but not glial genes like ALDOC or SPARCL1. Using the control model, individual cells from each sample were scored and assigned into one of the four subpopulations, and abundances of each individual subpopulation across all experimental samples were (FIG. 38D).
To dissect how the abundances of these individual populations responded to signals, a multinomial logistic regression analysis was performed. Multinomial logistic regression models were used to determine the probability of each cell belonging to one of K mutually exclusive classes (in this case, the four subpopulations defined above) based on m independent predictor variables (in this case, the concentrations of each signal) [See Methods—Multinomial logistic regression in this example].
By examining the regression coefficients β, the relationship between each signal and how the signal regulates the proportions of each cell type can be determined. Importantly, the regression model only computed coefficients for K−1 of the outcome classes, while the K^th class was treated as a reference. […]

[2] = test system: neural progenitor subpopulation from the ventricular zone (VZ); assay: High-concentration additional signals on ventricular zone cells: neural progenitor subpopulation aligned to VZ-D0, differential genes by L1-norm; type: cell-based, mouse
Protocol: Having seen that these signals can control population structure, whether these additional signals induced major transcriptional changes in neural stem cells was determined. Further, whether any changes restored the functional defects observed in response to in vitro culture was determined. To learn these transcriptional changes, a new experiment was performed using high concentrations of signaling factors for two reasons: 1) the original combinatorial screen required the cells to be fixed in methanol, which may disrupt gene expression values thus making comparing that data directly to the in vivo data difficult and 2) the original combinatorial screen suffered from low sample number for some of the conditions, due to variation in proliferation rate. This new experiment was performed by adding high concentrations of additional signals (BMP4 (20 ng/mL), CHIR (3 uM), PDGF-AA (20 ng/mL) and DLL1 (surface-coated)) in addition to high concentrations of EGF/FGF immediately after dissociation of cells from the VZ, and all cells were grown for five days in these signal cocktails before profiling.
First, models were built for all of the new samples, aligned each to the VZ-D0 sample (which served as the control), and then only the subpopulations across all samples that aligned to the neural progenitor population were pulled out (FIG. 39B). By plotting the Jeffreys Divergence between these aligned populations (FIG. 39C), all the in vivo populations (E15, E18, and VZ-D0) were seen to be close to each other, while in vitro populations were very distant (VZ-D18 and ivNSC).
To confirm this possibility, the genes that were differentially expressed in the BMP4-, DLL-, PDGF-, and CHIR-containing cells were examined, and these genes were compared to the genes discovered in FIG. 36A-36I. […] By contrast, CHIR only rescued 3 of the lost genes, while DLL and PDGF had only one differentially regulated gene each (FIG. 39D).
Normally in development, these neural progenitors give rise to neurons that form six distinct layers in the cortex. These cortical layers have distinct functions, connectivity patterns, and gene expression patterns, which have been characterized in the literature. The gene expression patterns of these layer-specific genes were examined in neural progenitor populations aligned across all samples (FIGS. 39H-39I). Expression of these genes, while noisy, was very extensive in the in vivo populations, but that culture in vitro erased their expression.
Neuroprogenitors are dissociated from the combined cortex, hippocampus and ventricular zone of E18 mice (Brainbits). After dissociation and resuspension of the cells in NPgrow, cells were counted and plated onto ultra-low attachment 100 mm culture plates (Corning) at one million cells per plate in 10 mL of NPgrow supplemented with 1% Penicillin-Streptomycin. Cells were cultured at 37° C. and 5% CO2 and supplemented medium was changed every 3 to 4 days. In some experiments, subventricular zone (SVZ) stem cells were derived with supplemental factors during derivation. PDGF-AA and BMP4 (Peprotech) were used at […], and 20 ng/mL. CHIR99021 (Stem Cell) was used at 3 uM. DLL1 ligand was coated onto tissue culture plastic for one hour before plating cells.
For each gene, two empirical distributions P1(g), P2(g), one for each subpopulation, were determined. These distributions were discretized over identical histogram binnings, a, over the gene's entire range of expression, Ω. Then the L1 distance was defined as: d=sign(g2−g1)Σa∈Ω∥P1(a)−P2(a)∥1, where g1 and g2 denote the respective means of subpopulations 1 and 2. […] The L1 distance ranged from −2 to +2, both of which corresponded to completely non-overlapping distributions. Genes with L1 distances of high magnitude (≳0.5) always had distributions which, by eye, were in obvious agreement with the labeled directionality. […] Query.

[3] = test system: primary human peripheral blood mononuclear cells (PBMCs); assay: PBMC signaling experiment: single-cell mRNA-seq with PopAlign alignment to the reference PBMC sample; type: cell-based; details: 1 ng/mL, 13 hours
Protocol: One non-limiting application of PopAlign is to study heterogeneous cell populations in the human body as they respond to environmental change, drug treatments, and disease. The human immune system is an extremely heterogeneous physiological system that is central for disease and cell engineering applications. As a test case, PopAlign was tested for its ability to identify subtype-specific signaling responses in a complex mixture of primary human immune cells. Thus, primary human peripheral blood mononuclear cells (PBMCs) (FIG. 17A) were treated with two lymphokines—granulocyte-macrophage colony-stimulating factor (GM-CSF) (FIG. 17C) and interferon-gamma (IFNG) (FIG. 17D) that are known to have a specific impact on monocytes (See Experimental Methods). […] In the reference PBMCs, five independent cell densities (FIG. 17A) were identified and classified using canonical markers from the literature (FIG. 17B). The signal treated cell-populations (FIGS. 17C-17D) were aligned to the PBMC data (FIG. 17A), finding that, for both signals, the monocyte populations (mixtures PBMC-1, PBMC-3) had the largest shifts in their average gene expression state (|Δμ|>0.04) (FIG. 17F). While T-cell abundances changed (numbers), their mean cell states (μ) had the lowest magnitude of gene expression shift. For immune cell experiments, the independent mixture components were classified as effector T cells (CD3+/CD57+), naive T-cells(CD3+/CD28+), erythrocytes (HBB+), canonical monocytes (CD14+/CD16low), and nonclassical monocytes(CD14low/CD16++) (FIG. 16E). Populations in the test samples—GM-CSF (FIG. 16B) and IFNG (FIG. 15C)—were aligned to the reference populations (control) by finding pairs of components that minimize the Jeffrey's divergence (FIG. 16D). Cryopreserved PBMCs sourced from Hemacare (~10 million cells, source ID: D23127, Lot: 17043194) were thawed in a 37° C. waterbath for 2 minutes after which the cells were transferred to a 15 mL conical tube. Prewarmed RPMI1640 was then added to the 15 mL conical to a final volume of 10 mL and centrifuged for 2 minutes at 300RCF to pellet the cells. Supernatant was removed and cells were resuspended in 10 mL of RPMI1640 supplemented with 10% FBS and 1% pen/strep. The cell suspension was then plated onto a 100 mm low attachment plate and placed in a CO2 incubator at 37° C. for 5 hours for the cells to recover. For each condition, 700,000 cells were aliquoted into a well of a 96 well plate. These cells were cultured for 13 hours under two different conditions: 1) IFN-γ@ 1 ng/mL, 2) GM-CSF 1 ng/mL, each with a single additional replicate. After incubation, the plate was sealed with an aluminum adhesive and centrifuged for 3 minutes at 300RCF. […]

| Molecule | log-likelihood ratio (LLR) score against control population ([1]; 5 days) | class of transcriptional (signaling) response of canonical and non-canonical monocytes [3] | gene expression programs altered in monocytes [3] | number of differentially regulated genes ([2]; 5 days with high EGF/FGF) | other results |
| --- | --- | --- | --- | --- | --- |
| Cc1c[nH]c(-c2cnc(NCCNc3ccc(C#N)cn3)nc2-c2ccc(Cl)cc2Cl)n1 [CHIR, CHIR99021, reference compound] | lowest LLR score |  |  |  | odds ratio, proliferating progenitors (PP) vs non-proliferating progenitors (NPP) ([1]; per unit of signal (unit = maximum: EGF/FGF 20 ng/mL each, CHIR 3 uM), 5 days): 0.6; number of genes downregulated in ivNSCs that are re-induced (upregulated) by the signal ([2]; of 190 genes downregulated in ivNSCs vs E18 NProgs, 5 days with high EGF/FGF): 3 genes |
| GM-CSF: lymphokine signal applied to PBMCs at 1 ng/mL |  | additive | activating a new gene expression program called Chemokine Secretion/Leukocyte Migration pathway |  |  |
| IFNG: lymphokine signal applied to PBMCs at 1 ng/mL |  | convergent | up-regulation of pathways involved in antigen presentation and phagocytosis |  |  |
| PDGF |  |  |  | one | odds ratio, basal progenitors vs non-proliferating progenitors ([1]; per unit of signal (PDGF-AA 20 ng/mL), 5 days): 1.75 |
| B1 |  |  |  | one |  |
| B2 | lowest LLR score |  |  |  | committed neuroblasts (CN) proportion of the population ([1]; addition of BMP and low EGF/FGF): ~50%; odds ratio, committed neuroblasts vs non-proliferating progenitors ([1]; per unit of signal (BMP4 20 ng/mL), 5 days): 2.2; rescue of expression of cortical layer-specific genes in neural progenitors ([2]; 5 days in culture): only signal that could rescue the expression of these genes; number of genes upregulated in ivNSCs that are suppressed by the signal ([2]; 5 days with high EGF/FGF): 22 genes; Jeffreys Divergence of aligned neural progenitor subpopulation to in vivo populations ([2]; compared to VZ-D5, VZ-D5-CHIR, VZ-D5-DLL, VZ-D5-PDGF): closest to the in vivo populations |

Reference: patent US12700475B2, “Systems and methods for dissecting heterogeneous cell populations” (California Institute of Technology, priority 2018, dated 2026)
